Data: the supplement of paper PMC3493320
pIC50: −log10 of the molar value.

system: NCI-H295R; experiment: IC50 (antiproliferative, ATP content); conditions: 48 h
Method in brief: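 Adrenocortical carcinoma cells (1500 per well) were seeded in serum-free ITS-supplemented DMEM in 1536-well plates and cultured overnight. Library compounds were then pin-transferred at 8 final concentrations from 0.6 nM to 46 µM, and plates were kept 48 h at 37 °C, 5% CO2. ATP was read as CellTiter-Glo luminescence after 20 min at room temperature and normalised to vehicle (0%) and positive control (100% inhibition). IC50 came from four-parameter logistic fits; compounds with no concentration response were recorded as above the top dose.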

| SMILES | pIC50 |
| --- | --- |
| CCC(C)(C)C(=O)O[C@H]1C[C@@H](C)C=C2C=C[C@H](C)[C@H](CC[C@@H]3C[C@@H](O)CC(=O)O3)[C@H]21 | < 4.34 |
| Cc1cccc(C(C)c2c[nH]cn2)c1C (stereo not drawn) | < 4.34 |
| COc1ccc(C(=O)CCC(=O)O)c2ccccc12 | < 4.34 |
| O=[C@@](OCC)[C@@H](N[C@@H](C)C(N2C(N(C)C[C@H]2[C@](O)=O)=O)=O)CCC1=CC=CC=C1.Cl | < 4.34 |
| CC(C)NCC(O)c1ccc(NS(C)(=O)=O)cc1.Cl (stereo not drawn) | < 4.34 |
| O=c1[nH]cc(N(CCCl)CCCl)c(=O)[nH]1 | < 4.34 |
| CC(=O)N(CC(O)CN(C(C)=O)c1c(I)c(C(=O)NCC(O)CO)c(I)c(C(=O)NCC(O)CO)c1I)c1c(I)c(C(=O)NCC(O)CO)c(I)c(C(=O)NCC(O)CO)c1I (stereo not drawn) | < 4.34 |
| O=C1NCN(c2ccccc2)C12CCN(CCCOc1ccc(F)cc1)CC2 | < 4.34 |
| C=CCC1(C(C)CCC)C(=O)N=C([S-])NC1=O.[Na+] (stereo not drawn) | < 4.34 |
| O=C([C@@H]([C@]1=CC=CC=C1)N=C)N[C@@](C2=O)([H])[C@@](N2[C@H]3[C@@]([O-])=O)([H])SC3(C)C.[Na+] | < 4.34 |
| CC1=C(/C=C/C(C)=C/C=C/C(C)=C/C(=O)Oc2c(C)c(C)c3c(c2C)CC[C@@](C)(CCC[C@H](C)CCC[C@H](C)CCCC(C)C)O3)C(C)(C)CCC1 | < 4.34 |
| CNC[C@H](O)c1cccc(O)c1.Cl | < 4.34 |
| CC(=O)OCC1=C(C(=O)O)N2C(=O)[C@@H](NC(=O)Cc3cccs3)[C@H]2SC1 | < 4.34 |
| O=C(O)c1cc(O)nc(O)n1 | < 4.34 |
| CCC(C)[C@@H](N)C(=O)O (stereo partly drawn) | < 4.34 |
| CCOc1cc(CC(=O)N[C@@H](CC(C)C)c2ccccc2N2CCCCC2)ccc1C(=O)O | < 4.34 |
| CC(C)(C)NCC(O)c1ccccc1Cl.Cl (stereo not drawn) | < 4.34 |
| Cc1ncc(CNC(=O)N(CCCl)N=O)c(N)n1 | < 4.34 |
| O=C3N1/C(=C(/Cl)CS[C@@H]1[C@@H]3NC(=O)[C@H](N)c2ccccc2)C(O)=O | < 4.34 |
| CCN(CCO)CCCC(C)Nc1ccnc2cc(Cl)ccc12.O=S(=O)(O)O (stereo not drawn) | < 4.34 |
| CCCOC(=O)c1ccc(O)cc1 | < 4.34 |
| NS(=O)(=O)c1cc2c(cc1C(F)(F)F)NCNS2(=O)=O | < 4.34 |
| NC(=O)c1ccc([N+](=O)[O-])cc1Cl | < 4.34 |
| Cc1cc(=O)n(-c2ccccc2)n1C | < 4.34 |
| COc1ccc(Cl)cc1C(=O)NCCc1ccc(S(=O)(=O)NC(=O)NC2CCCCC2)cc1 | < 4.34 |

| SMILES | pIC50 |
| --- | --- |
| CC(C)(Sc1cc(C(C)(C)C)c(O)c(C(C)(C)C)c1)Sc1cc(C(C)(C)C)c(O)c(C(C)(C)C)c1 | < 4.34 |
| CCCCC(CC)CCC(CC(C)C)OS(=O)(=O)[O-].[Na+] (stereo not drawn) | < 4.34 |
| O=C(O)Cc1ccc(-c2ccccc2)cc1 | < 4.34 |
| Cc1cnc(C(=O)O)c[n+]1[O-] | < 4.34 |
| C[N+]1(CCC(C(N)=O)(c2ccccc2)c2ccccc2)CCCCC1.[Br-] | < 4.34 |
| CC[N+](C)(C)Cc1ccccc1Br.Cc1ccc(S(=O)(=O)[O-])cc1 | < 4.34 |
| CCCCOC(=O)CC(CC(=O)OCCCC)(OC(C)=O)C(=O)OCCCC | < 4.34 |
| CC1(C)O[C@@H]2C[C@H]3[C@@H]4CCC5=CC(=O)C=C[C@]5(C)[C@H]4[C@@H](O)C[C@]3(C)[C@]2(C(=O)CO)O1 | < 4.34 |
| NC(=O)NNc1ccccc1 | < 4.34 |
| CCCCO | < 4.34 |
| Cl.N[C@H]1C(O)O[C@H](CO)[C@@H](O)[C@@H]1O (stereo partly drawn) | < 4.34 |
| N[C@@H](Cc1ccc(O)cc1)C(=O)O | < 4.34 |
| OCc1ccccc1O | < 4.34 |
| COCC(=O)Nc1c(I)c(C(=O)NCC(O)CO)c(I)c(C(=O)N(C)CC(O)CO)c1I (stereo not drawn) | < 4.34 |
| CC[NH+](CC)CCc1nc(-c2ccccc2)no1.O=C([O-])CC(O)(CC(=O)O)C(=O)O | < 4.34 |
| CN[C@@H]1[C@@H](O)[C@@H](O[C@@H]2[C@@H](O)[C@H](OC3OC(CN)=CCC3N)[C@@H](N)C[C@H]2N)OC[C@]1(C)O.CN[C@@H]1[C@@H](O)[C@@H](O[C@@H]2[C@@H](O)[C@H](OC3OC(CN)=CCC3N)[C@@H](N)C[C@H]2N)OC[C@]1(C)O.O=S(=O)(O)O.O=S(=O)(O)O.O=S(=O)(O)O.O=S(=O)(O)O.O=S(=O)(O)O (stereo partly drawn) | < 4.34 |
| CN(C)CCCOc1nn(Cc2ccccc2)c2ccccc12.Cl | < 4.34 |
| O=C(CCl)c1ccc(Oc2ccc(C(=O)CCl)cc2)cc1 | < 4.34 |
| CC(=O)OCC(CCn1cnc2cnc(N)nc21)COC(C)=O | < 4.34 |
| O=[C@](COC(C(C)(C)C)=O)[C@@H]2[C@](CC1)(C)[C@](CC2)([H])[C@@](CC4)([H])[C@@]1([H])[C@](CC3)(C)C4=CC3=O | < 4.34 |
| CS(=O)(=O)O.N[C@@H]1[C@H]2CN(c3nc4c(cc3F)c(=O)c(C(=O)O)cn4-c3ccc(F)cc3F)C[C@@H]12 | < 4.34 |
| COC(=O)[C@H](Cc1ccccc1)NC(=O)[C@@H](N)CC(=O)O | < 4.34 |
| Cc1cc(NC(=O)C2=C(O)c3ccccc3S(=O)(=O)N2C)no1 | < 4.34 |
| Cl.NC1CCN(c2cccc(Cl)n2)CC1 | < 4.34 |
| CCCCCCCCCCCCCCCC(=O)OC(C)C | < 4.34 |

| SMILES | pIC50 |
| --- | --- |
| O=P(O)(O)C(O)(Cn1ccnc1)P(=O)(O)O | < 4.34 |
| Cc1ncc2n1-c1ccc(Cl)cc1C(c1ccccc1F)=NC2.Cl | < 4.34 |
| CN(C)[C@@H]1C(O)=C(C(N)=O)C(=O)[C@@]2(O)C(O)=C3C(=O)c4c(O)cccc4[C@@](C)(O)[C@H]3C[C@@H]12.Cl | < 4.34 |
| Clc1cccc(Cl)c1N=C1NCCN1 | < 4.34 |
| Nc1ccc(S(=O)(=O)Nc2cnc3ccccc3n2)cc1 | < 4.34 |
| OCCOCCOCCO | < 4.34 |
| C=CC1=C(C(=O)O)N2C(=O)[C@@H](NC(=O)C(=NO)c3csc(N)n3)[C@H]2SC1 | < 4.34 |
| C[C@@H]1CCC[C@H](C)N1.Cl | < 4.34 |
| COc1ccc(CCNC[C@H](O)c2ccc(O)cc2)cc1OC | < 4.34 |
| O=C1[O][Pt]2([NH][C@@H]3CCCC[C@H]3[NH]2)[O]C1=O | < 4.34 |
| CCCCCCCCCCCCCCCCN | < 4.34 |
| CCCCCCCCCCC(CO)CCCCCCCC (stereo not drawn) | < 4.34 |
| NC(=O)N1c2ccccc2C=Cc2ccccc21 | < 4.34 |
| NC(=O)OCC(COC(N)=O)c1ccccc1 | < 4.34 |
| Nc1ccc([As](=O)(O)O)cc1 | < 4.34 |
| O=[C@](OC)[C@@H]3[C@@]2([H])C[C@@](N4C[C@@]([H])2CC[C@@H]3O)([H])C1=C(CC4)C(C=CC=C5)=C5N1 | < 4.34 |
| CNc1ccc(C(=O)CC(O)CCC(C)C2OC(=O)CC(O)CC(=O)CC(O)CC(O)CC(O)CC(O)CC3(O)CC(O)C(C(=O)OC)C(CC(O[C@@H]4O[C@H](C)[C@@H](O)[C@H](N)[C@@H]4O)/C=C/C=C/C=C/C=C/C=C/C=C/C=C/C2C)O3)cc1 (stereo partly drawn) | < 4.34 |
| C=CCN1CC[C@]23c4c5ccc(O)c4O[C@H]2C(=O)CC[C@@]3(O)[C@H]1C5 | < 4.34 |
| Cc1nc(-c2ccc(Cl)cc2)oc1COC(C)(C)C(=O)O | < 4.34 |
| CCCN1CCC[C@H](c2cccc(O)c2)C1.Cl | < 4.34 |
| COc1ccnc(CS(=O)c2nc3cc(OC(F)F)ccc3[nH]2)c1OC (stereo not drawn) | < 4.34 |
| O=C(O)c1cc(O)c(O)c(O)c1 | < 4.34 |
| CC(=O)OCC1=C(C(=O)[O-])N2C(=O)[C@@H](NC(=O)CSc3ccncc3)[C@H]2SC1.[Na+] | < 4.34 |
